{"source": "patent US12546786B2", "about": "“Circulatory biomarkers for placental or fetal health” (THE UNIVERSITY OF MELBOURNE, priority 2018, dated 2026)", "tested_on": "HTR8 cells", "assay": "HTR8 placental cell line proliferation monitored in real time using the xCELLigence system", "format": "cell-based", "conditions": "5 or 10 uM of SRI31215 administered to HTR8 placental cell line", "method": "FIGS. 3A through P are graphical representations showing observational studies to determine whether placental SPINT1 is altered in cases of human SGA. To do this, a cohort of placentas was selected from either control, preeclamptic or SGA pregnancies. […] No change in SPINT1 mRNA expression was detected in placentas collected from patients who delivered at >34 weeks gestation (B). SPINT1 protein expression was assessed using Western blot and commercially available antibodies (C,D). […] Growth restriction is often associated with placental insufficiency and poor oxygen delivery to the placenta, resulting in placental hypoxia. The inventors assessed whether exposure of primary placental cells (cytotrophoblast cells isolated from term human placentas) to low oxygen conditions (1% Oxygen for hypoxia vs 8% oxygen for normoxia) would alter SPINT1 mRNA and protein expression and protein secretion. […] Given previous evidence in mice that a lack of SPINT1 may be associated with a poorly developed placenta, the inventors next set out to assess whether silencing SPINT1 using siRNA knockdown in the HTR8 placental cell line would affect cellular proliferation assessed in real time using the xCELLigence system. […] To do this, a commercially available SPINT1 mimetic called SRI31215 (Glixx laboratories) was administered to HTR8 cells and their proliferation monitored using the xCELLigence system. […]", "data": [{"smiles": "CC1CN(CC2CCN(Cc3ccccc3)CC2)C(=O)N(c2cccc(C(=N)N)c2)C1.O=C(O)C(F)(F)F", "note": "(stereo not shown) [SRI31215]", "values": [{"measurement": "HTR8 proliferation", "result": "enhanced HTR8 proliferation"}]}]}
